The subject of assay [1] is non-small cell lung cancer cell line H460. Put plainly: In vitro human cancer cell line cytotoxicity (proliferation) assay in H460, CellTiter-Glo, 72 hours. It is filed as cell-based. To be noted: DMSO condition (no AKR1C3 inhibitor), read-out: CTG H460: Avg IC50 (nM) [Assay Condition: DMSO]. The procedure, abridged:
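IC50s in nM come from CellTiter-Glo viability read after 72 h of compound exposure. Compounds went in from 10 mM DMSO stocks onto H460 cells, which had been plated at 3×10^3 per well and grown 24 h beforehand at 37 °C, 5% CO2.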

The test system is the same in assay [2]. Put plainly: H460 proliferation assay in the presence of 3 uM ASP9521 (AKR1C3 specific inhibitor). It is filed as cell-based, human. To be noted: H460 cells, CellTiter-Glo, 72 hours, in the presence of 3 uM ASP9521 added 4 hours prior to compounds; read-out: CTG H460: Avg IC50 (nM) [Assay Condition: ASP9521]. The procedure, abridged: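 AKR1C3 blocked with 3 uM ASP9521 given 4 h ahead of test compounds. H460 cells, plated 24 h earlier, were then treated for 72 h at 37 °C in 5% CO2. CellTiter-Glo luminescence gave viability.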
For orientation: Cellular ATP, detected with luciferase, serves as a proxy for viable cell number.

Setting [3] is: Homo sapiens, NCI-H460, 72 h, H460 cells.

Results on 43 compounds are retold here after US20260167656A1, “PHOSPHORAMIDATE COMPOUNDS AND USES THEREOF” (ALLORION THERAPEUTICS INC, priority 2022, published 2026).

For orientation: IC50 means the concentration that gives 50% inhibition. On to `CN(C)C(=O)c1cccc(Oc2c([N+](=O)[O-])ccc3c2CCC3OP(=O)(N2CC2)N2CC2)c1` (single isomer, unassigned) [Example 32], for which the IC50 was below 10 nM in assay [1] (setting [3]) and 145 nM in assay [2].

With `O=[N+]([O-])c1ccc2c(c1Oc1cccc(-n3cncn3)c1)CC[C@@H]2OP(=O)(N1CC1)N1CC1` [Example 435], the figures for the IC50 in assay [1] (setting [3]) and in assay [2] were below 10 nM and 482 nM, respectively.

Turning to `O=[N+]([O-])c1ccc2c(c1Oc1ccc(O)c(-c3ccc(F)cn3)c1)CCC2OP(=O)(N1CC1)N1CC1` (centres unmarked) [Example 333], the figures for the IC50 in assay [1] (H460 cells) and in assay [2] were below 10 nM and 1310 nM, respectively.

In the case of `O=[N+]([O-])c1ccc2c(c1Oc1ccc(-c3ccc(F)cn3)c(F)c1)CCC2OP(=O)(N1CC1)N1CC1` (centres unmarked) [Example 29], the IC50 in assay [1] (setting [3]) is below 10 nM; in assay [2], 1220 nM.

With `O=[N+]([O-])c1cc2c(cc1Oc1ccc(-c3ccncc3)cc1)C(OP(=O)(N1CC1)N1CC1)CC2` (centres unmarked) [Example 198], the figures for the IC50 in assay [1] (setting [3]) and in assay [2] were below 10 nM and 2230 nM, respectively.

In the case of `CC(C)Oc1cc(Oc2c([N+](=O)[O-])ccc3c2CCC3OP(=O)(N2CC2)N2CC2)ccc1F` (centres unmarked) [Example 486], the IC50 in assay [1] (H460 cells) was below 10 nM; in assay [2] it was 967 nM.

In the case of `C[C@H]1CN1P(=O)(OC(c1ccc([N+](=O)[O-])c(Oc2cccc(C(=O)N(C)C)c2)c1)C(F)(F)F)N1C[C@@H]1C` (some centres unmarked) [Example 227], the IC50 in assay [1] (setting [3]) is 10 to 50 nM; in assay [2], 9760 nM.

As to `CC(C)COc1cc(Oc2c([N+](=O)[O-])ccc3c2CC[C@@H]3OP(=O)(N2CC2)N2CC2)ccc1F` [Example 498], the IC50 was below 10 nM in assay [1] (setting [3]) and 899 nM in assay [2].

On to `Cc1cncc(-c2ccc(Oc3c([N+](=O)[O-])ccc4c3CCC4OP(=O)(N3CC3)N3CC3)cc2)n1` (racemic) [Example 281], for which the results for the IC50 in assay [1] (H460 cells) and in assay [2] were below 10 nM and 787 nM, respectively.

Take `O=[N+]([O-])c1ccc2c(c1Oc1ccc(F)c(OC3CCCC3)c1)CCC2OP(=O)(N1CC1)N1CC1` (centres unmarked) [Example 479]: the IC50 in assay [1] (H460 cells) is below 10 nM; in assay [2], 1630 nM.

Consider `O=C1CCCN1c1cccc(Oc2c([N+](=O)[O-])ccc3c2CCC3OP(=O)(N2CC2)N2CC2)c1` (centres unmarked) [Example 111], for which the half-inhibitory concentration (IC50) in assay [1] (setting [3]) is below 10 nM; in assay [2], 1100 nM.

Consider `CN1CCOc2ccc(Oc3cc4c(cc3[N+](=O)[O-])CCC4OP(=O)(N3CC3)N3CC3)cc2C1=O` (centres unmarked) [Example 159], for which the IC50 in assay [1] (H460 cells) was at least 100 nM; in assay [2] it was above 10000 nM.

On to `CN1Cc2cc(Oc3c([N+](=O)[O-])ccc4c3CCC4OP(=O)(N3CC3)N3CC3)ccc2C1=O` (single isomer, unassigned) [Example 43], for which the values for the IC50 in assay [1] (H460 cells) and in assay [2] were below 10 nM and 314 nM, respectively.

For the compound `Cn1ccc2c(F)cc(Oc3c([N+](=O)[O-])ccc4c3CC[C@@H]4OP(=O)(N3CC3)N3CC3)cc21` (single isomer, unassigned) [Example 377], the IC50 was below 10 nM in assay [1] (setting [3]) and 1330 nM in assay [2].

As for `CC(OP(=O)(N1CC1)N1CC1)c1ccc([N+](=O)[O-])c(Cn2ccc(=O)cc2)c1` (centres unmarked) [Example 4], the values for the IC50 in assay [1] (setting [3]) and in assay [2] were at least 100 nM and above 10000 nM, respectively.

Take `O=C(c1ccc(Oc2c([N+](=O)[O-])ccc3c2CCC3OP(=O)(N2CC2)N2CC2)cc1)N1CCOCC1` (centres unmarked) [Example 34]: the results for the IC50 in assay [1] (setting [3]) and in assay [2] were 10 to 50 nM and 822 nM, respectively.

Take `CC(OP(=O)(N1CC1)N1CC1)c1cc(Oc2ccc(C(=O)N(C)C)cc2)c([N+](=O)[O-])cc1Cl` (centres unmarked) [Example 9]: the IC50 in assay [1] (setting [3]) was below 10 nM; in assay [2], 1720 nM.

With `CC(C)C1CN1P(=O)(OCc1ccc([N+](=O)[O-])c(Oc2cccc(C(=O)N(C)C)c2)c1)N1CC1C(C)C` (centres unmarked) [Example 11], the values for the IC50 in assay [1] (setting [3]) and in assay [2] were at least 100 nM and 2050 nM, respectively.

For `Cn1ccc2cc(Oc3c([N+](=O)[O-])ccc4c3CC[C@H]4OP(=O)(N3CC3)N3CC3)ccc21` [Example 386], the IC50 in assay [1] (setting [3]) was below 10 nM; in assay [2] it was 1410 nM.

Take `Cc1csc(-c2cc(Oc3c([N+](=O)[O-])ccc4c3CCC4OP(=O)(N3CC3)N3CC3)ccc2F)n1` (centres unmarked) [Example 340]: the IC50 was 10 to 50 nM in assay [1] (H460 cells) and 4390 nM in assay [2].

As for `CN1Cc2ccc(Oc3c([N+](=O)[O-])ccc4c3CCC4OP(=O)(N3CC3)N3CC3)cc2C1=O` (centres unmarked) [Example 23], the IC50 is below 10 nM in assay [1] (setting [3]) and 75.9 nM in assay [2].

With `O=C(c1cccc(Oc2c([N+](=O)[O-])ccc3c2CCC3OP(=O)(N2CC2)N2CC2)c1)N1CCCCC1` (single isomer, unassigned) [Example 69], the figures for the IC50 in assay [1] (H460 cells) and in assay [2] were below 10 nM and 573 nM, respectively.

With `Cc1nncn1-c1cccc(Oc2c([N+](=O)[O-])ccc3c2CC[C@@H]3OP(=O)(N2CC2)N2CC2)c1` [Example 434], the IC50 in assay [1] (setting [3]) is below 10 nM; in assay [2], 1140 nM.

With `O=C(c1cccc(Oc2c([N+](=O)[O-])ccc3c2CCC3OP(=O)(N2CC2)N2CC2)c1)N1CCCCC1` (centres unmarked) [Example 236], the IC50 in assay [1] (H460 cells) is below 10 nM; in assay [2], 715 nM.

Regarding `O=[N+]([O-])c1ccc2c(c1Oc1ccc(-c3ncc(F)cn3)cc1)CC[C@@H]2OP(=O)(N1CC1)N1CC1` (single isomer, unassigned) [Example 265], the IC50 in assay [1] (setting [3]) is below 10 nM; in assay [2], 1300 nM.

For `O=[N+]([O-])c1ccc2c(c1Oc1ccc(F)c(OC3CCCC3)c1)CCC2OP(=O)(N1CC1)N1CC1` (centres unmarked) [Example 478], the IC50 in assay [1] (H460 cells) is below 10 nM; in assay [2], 1690 nM.

Turning to `O=[N+]([O-])c1cc2oc(COP(=O)(N3CC3)N3CC3)cc2cc1Oc1cccc(-c2ccccc2)c1` [Example 534], the values for the IC50 in assay [1] (setting [3]) and in assay [2] were below 10 nM and 1200 nM, respectively.

As for `O=C1c2cc(Oc3c([N+](=O)[O-])ccc4c3OCCC4OP(=O)(N3CC3)N3CC3)ccc2CN1C1CC1` (single isomer, unassigned) [Example 138], the IC50 in assay [1] (setting [3]) was below 10 nM; in assay [2] it was 579 nM.

For the compound `Cn1cnc(-c2cccc(Oc3c([N+](=O)[O-])ccc4c3CCC4OP(=O)(N3CC3)N3CC3)c2)cc1=O` (centres unmarked) [Example 118], the figures for the IC50 in assay [1] (H460 cells) and in assay [2] were 10 to 50 nM and 4510 nM, respectively.

On to `C[C@H]1CN1P(=O)(OCc1c(F)c(F)c(OCc2ccc([N+](=O)[O-])c(Oc3cccc(C(=O)N(C)C)c3)c2)c(F)c1F)N1C[C@@H]1C` (stereo partly drawn) [Example 12, 4-((3-(3-(dimethylcarbamoyl)phenoxy)-4-nitrobenzyl)oxy)-2,3,5,6-tetrafluorobenzyl bis((S)-2-methylaziridin-1-yl)phosphinate], for which the IC50 in assay [1] (setting [3]) was below 10 nM; in assay [2], 89 nM.

For the compound `C[C@@H]1CN1P(=O)(OC(c1ccc([N+](=O)[O-])c(Oc2cccc(C(=O)N(C)C)c2)c1)C(F)(F)F)N1C[C@H]1C` (some centres unmarked) [Example 226], the figures for the IC50 in assay [1] (setting [3]) and in assay [2] were 10 to 50 nM and above 10000 nM, respectively.

In the case of `CC(OP(=O)(N1CC1)N1CC1)c1cc2cc(Oc3cccc(C(=O)N4CCOCC4)c3)c([N+](=O)[O-])cc2o1` (centres unmarked) [Example 544], the IC50 in assay [1] (H460 cells) was 10 to 50 nM; in assay [2] it was 3490 nM.

`O=C(c1cc(Oc2c([N+](=O)[O-])ccc3c2CC[C@@H]3OP(=O)(N2CC2)N2CC2)ccc1F)N1CC(F)(F)C1` [Example 258]: the IC50 in assay [1] (H460 cells) was below 10 nM; in assay [2] it was 2060 nM.

With `O=[N+]([O-])c1ccc2c(c1Oc1ccc(-c3ccc(F)cc3)cc1)OCCC2OP(=O)(N1CC1)N1CC1` (centres unmarked) [Example 132], the figures for the IC50 in assay [1] (setting [3]) and in assay [2] were below 10 nM and 1250 nM, respectively.

Consider `O=c1ccccn1-c1cccc(Oc2c([N+](=O)[O-])ccc3c2CCC3OP(=O)(N2CC2)N2CC2)c1` (centres unmarked) [Example 81], for which the IC50 in assay [1] (H460 cells) was below 10 nM; in assay [2], 829 nM.

For `O=[N+]([O-])c1ccc2c(c1Oc1cncc(C3CC3)c1)CC[C@H]2OP(=O)(N1CC1)N1CC1` [Example 318], the IC50 in assay [1] (setting [3]) was below 10 nM; in assay [2], 1070 nM.

Take `Cn1cnc2cc(Oc3c([N+](=O)[O-])ccc4c3CC[C@H]4OP(=O)(N3CC3)N3CC3)ccc21` [Example 397]: the IC50 in assay [1] (Homo sapiens, NCI-H460, H460 cells) is below 10 nM; in assay [2], 956 nM.

`C[C@@H]1CN1P(=O)(OCc1ccc([N+](=O)[O-])c(Oc2cccc(C(=O)N(C)C)c2)c1)N1C[C@H]1C` (some centres unmarked) [Example 208]: the IC50 was below 10 nM in assay [1] (setting [3]) and 184 nM in assay [2].

Consider `CN(C)C(=O)c1cccc(Oc2c([N+](=O)[O-])ccc3c2OCCC3OP(=O)(N2CC2)N2CC2)c1` (centres unmarked) [Example 129], for which the IC50 was 10 to 50 nM in assay [1] (H460 cells) and 982 nM in assay [2].

In the case of `COc1ccc(-c2ccc(Oc3cc4c(cc3[N+](=O)[O-])CCC4OP(=O)(N3CC3)N3CC3)cc2)cc1` (centres unmarked) [Example 184], the values for the IC50 in assay [1] (setting [3]) and in assay [2] were 10 to 50 nM and 2640 nM, respectively.

For `Cn1cc(-c2ccc(Oc3c([N+](=O)[O-])ccc4c3CCC4OP(=O)(N3CC3)N3CC3)cc2)cn1` (single isomer, unassigned) [Example 59], the IC50 was below 10 nM in assay [1] (H460 cells) and 1360 nM in assay [2].

Regarding `O=[N+]([O-])c1ccc2c(c1Oc1ccc(F)c(OC3CCOCC3)c1)CC[C@@H]2OP(=O)(N1CC1)N1CC1` [Example 495], the IC50 in assay [1] (setting [3]) is below 10 nM; in assay [2], 635 nM.

On to `CC(C)Oc1cc(Oc2c([N+](=O)[O-])ccc3c2CCC3OP(=O)(N2CC2)N2CC2)ccc1F` (centres unmarked) [Example 487], for which the IC50 in assay [1] (H460 cells) is below 10 nM; in assay [2] it was 1010 nM.
